Values joined by “and” are separate entries in the source; they are usually repeats but may differ in a detail not shown here. Identical values can stand only once. No end group written: not given here.
Tests used:
PTH-1 receptor = target: T1, PTH-1 receptor (Homo sapiens, UniProt Q03431); assay: Competition binding with 125I-rPTH(1-34) in HKRK-B7 cells; parameters: expressed in transfected cells; host or cells: LLC-PK1 porcine kidney cells, clone HKRK-B7; settings: 125I-rPTH(1-34) tracer
T1 sequence (Q03431 27-593): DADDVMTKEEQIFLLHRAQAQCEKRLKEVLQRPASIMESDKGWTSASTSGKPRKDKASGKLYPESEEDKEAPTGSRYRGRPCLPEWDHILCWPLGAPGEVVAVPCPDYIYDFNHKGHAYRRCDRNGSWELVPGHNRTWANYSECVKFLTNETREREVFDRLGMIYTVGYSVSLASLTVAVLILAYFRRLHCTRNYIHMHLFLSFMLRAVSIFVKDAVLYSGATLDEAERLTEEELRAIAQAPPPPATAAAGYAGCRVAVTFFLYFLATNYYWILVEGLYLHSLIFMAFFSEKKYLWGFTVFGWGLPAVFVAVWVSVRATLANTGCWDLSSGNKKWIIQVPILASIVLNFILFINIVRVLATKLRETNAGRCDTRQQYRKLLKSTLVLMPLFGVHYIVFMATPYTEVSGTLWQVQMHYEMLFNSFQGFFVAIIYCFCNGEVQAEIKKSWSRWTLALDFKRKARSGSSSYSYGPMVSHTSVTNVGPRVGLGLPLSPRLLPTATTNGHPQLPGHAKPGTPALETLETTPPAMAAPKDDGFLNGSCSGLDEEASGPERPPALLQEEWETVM
Experimental: Binding reactions were performed with stably transfected HKRK-B7 cells in 24-well plates. Cells were rinsed with 0.5 mL of binding buffer (50 mM Tris-HCl, 100 mM NaCl, 5 mM KCl, 2 mM CaCl2, 5% heat-inactivated horse serum, 0.5% fetal bovine serum, adjusted to pH 7.7 with HCl), and treated successively with 100 μL binding buffer, 100 μL of binding buffer containing various amounts of unlabeled competitor ligand, and 100 μL of binding buffer containing ca. 100,000 cpm of ^125I-rPTH(1-34) (ca. 26 fmol). Incubations (final volume=300 μL) were at 15° C. for 4 h. Cells were then placed on ice, the binding medium was removed, and the monolayer was rinsed three times with 0.5 mL of cold binding buffer. The cells were subsequently lysed with 0.5 mL 5N NaOH and counted for radioactivity. The nonspecific binding for each experiment was determined by competition with a 1 μM dose of unlabeled rPTH(1-34). The maximum specific binding (B0) was the total radioactivity bound in the absence of unlabeled PTH ligand, corrected for nonspecific binding. Binding IC50 values were determined using nonlinear regression (see below).
All calculations were performed using Microsoft Excel. […] The predicted response (yp) for a given dose (x) of peptide was calculated using the following equation: yp=Min+[(Max−Min)/(1+(EC50/x)^slope)]. […]

[1] = tested on: truncated PTH-1 receptor rP1R-ΔNt; assay: cAMP with truncated rat PTH-1 receptor lacking the N-terminal extracellular domain (rP1R-ΔNt); format: cell-based; settings: COS-7 cells expressing rP1R-ΔNt
[2] = tested on: truncated PTH-1 receptor rP1R-ΔNt; settings: Luck et al. 1999; cited from earlier work
PTH-1 receptors = settings: cells expressing (high levels of) PTH-1 receptors; Luck et al. 1999; read-out: EC50 adenyl cyclase/cAMP; cited from earlier work

Substance	improvement in binding affinity as compared to rPTH(1-34) (PTH-1 receptor)	cAMP formation with rP1R-ΔNt (in words) [1]	potency with truncated vs intact rPTH-1 receptor (in words) [2]	EC50 (PTH-1 receptors)
AVAEIQLMHARAKHLNSMERVEWLRKKLQDVHNY-NH2 [Peptide #7]	about 2 fold	–	–	–
AVSEIQLMHNLGKH-NH2 [native rPTH(1-14), AVSEIQLMHNLGKH, reference compound]	–	stimulated cAMP formation	as potent	~100 µM and 100 µM

Source: US8568736B2, “Polypeptide derivatives of parathyroid hormone (PTH)” (The General Hospital Corporation, priority 1999, dated 2013)
